Tests used:
[1] = tested on: sperm cells (whole semen); assay: Sperm motility of treated whole semen scored by differential interference microscopy (DIC); format: cell-based, human
Description: (§1) The general experimental protocol was as follows: Whole semen, obtained from human subjects after informed consent, was treated with various concentrations of fluorous surfactants. Samples were incubated for 5-10 min at 37° C. and 5% CO2. Semen samples were diluted in an isotonic buffered human sperm medium containing glucose. Sperm motility was scored as “% motility” using differential interference microscopy (“DIC”). Cell necropsy was determined by propidium iodide (“PI”) staining, which is known to stain the DNA of dead cells, and “% death” was scored using epifluorescence microscopy (stained and unstained sperm cells were counted to obtain a live/dead ratio). Acrosome integrity was determined with epifluorescence microscopy and fluorescein-conjugated Pisum sativum agglutinin (“FITC-PSA”) staining, the staining patterns of which are known to indicate the status of the acrosomal membrane.
(§2) To validate the general experimental protocol, the motility of whole semen treated with N-9 for 5 min was determined using DIC microscopy and PI staining Results are presented in Table 1.

[2] = tested on: sperm cells (whole semen); assay: Sperm cell necropsy by propidium iodide (PI) staining, epifluorescence microscopy; format: cell-based, human
Description: as §1, §2

[3] = tested on: acrosome of human spermatozoa; assay: Acrosome integrity by FITC-PSA staining, epifluorescence microscopy; format: cell-based; conditions: average; for Type I: bright acrosome; for Type III: equatorial segment; for Type II: medium acrosome; for Type IV: no labeling
Description: as §1
Staining with fluorescein isothiocyanate Pisium sativum agglutinin (“FITC-PSA”) is known to stain components of the acrosome, and the staining pattern differs depending on the condition of the acrosomal membrane. This technique may be used to identify whether the acrosome is intact. Various patterns of fluorescence are seen after labeling of air-dried human spermatozoa with FITC lectins, including a bright acrosome (Type I), a medium acrosome (Type II), an equatorial segment (Type III), and no labeling (Type IV). See, e.g., Mortimer et al., “Specific Labelling by Peanut Agglutinin of The Outer Acrosomal Membrane of The Human Spermatozoon,” J. Reprod. Fert. 81, 127-35 (1987). Averages of FTIC-PSA results are presented in Table 6, which includes percentages of acrosomes compromised and types of sperm visualized in the control and treated samples.

Escherichia coli = assay: Effects on microbes: growth inhibition of E. coli; format: cell-based
Source text: (§3) Fluorous surfactants also disrupt the membranes of pathogenic microbes, and they therefore have microbicidal activities. Preferably, they are toxic to pathogenic microorganisms, yet compatible with the flora normally found in human mucosal (e.g., vaginal) tissues. The effects of various fluorous surfactants on some laboratory models of pathogenic microorganisms (Escherichia coli, Saccharomyces cerevisiae, and Candida albicans) were studied.

Candida albicans = assay: Effects on microbes: growth inhibition of Candida albicans; format: cell-based; conditions: for inhibition of growth of Candida: 400 mM
Source text: as §3

HeLa cells = assay: Effects on HeLa (cervix) cells, morphology by microscopy; format: cell-based, human; conditions: 1.76 mM, 30 min
Source text: The effects of nonoxynol-9 and various fluorous surfactants on HeLa cells, which are a laboratory model for human cervical cells, were studied. […] Accordingly, it is believed that use of a spermicidal fluorous surfactant will be less irritating to human vaginal tissue.

For `O=S(=O)([O-])CCCOCC(F)(F)C(F)(F)F.[Na+]` [F5-PS], the “% Motility” value ([1]; 6%, 5 min) was 1%, the “% Motility” value ([1]; 9%, 5 min) was 0% and the “% Motility” value ([1]; 9%, 10 min) was 0%. The “% Motility” value ([1]; 12%, 5 min) was 0%, the “% Death” value ([2]; 6%, 5 min) was 91% and the “% Death” value ([2]; 6%, 10 min) was 99%. The “% Death” value ([2]; 9%, 5 min) was 98%, the “% Death” value ([2]; 9%, 10 min) was 96% and the “% Death” value ([2]; 12%, 5 min) was 99%.
For `OCCOCCOCCOCC(F)(F)C(F)(F)F` [F5-TEG, F5-triethylene glycol], the “% Motility” value ([1]; 4%, 5 min) was 0%, the “% Motility” value ([1]; 5%, 5 min) was 0% and the “% Motility” value ([1]; 6%, 5 min) was 0%. The “% Motility” value ([1]; 7%, 5 min) was 0%, the “% Motility” value ([1]; 8%, 5 min) was 0% and the “% Motility” value ([1]; 9%, 5 min) was 0%. The “% Motility” value ([1]; 10%, 5 min) was 0%, the “% Motility” value ([1]; 10%, 10 min) was 0% and the “% Motility” value ([1]; 12%, 5 min) was 0%. For the same molecule, the “% Motility” value ([1]; 15%, 5 min) was 0%, the “% Motility” value ([1]; 15%, 10 min) was 0% and the “% Death” value ([2]; 4%, 5 min) was 100%. For the same molecule, the “% Death” value ([2]; 5%, 5 min) was 96%, the “% Death” value ([2]; 6%, 5 min) was 100% and the “% Death” value ([2]; 7%, 5 min) was 98%. The “% Death” value ([2]; 8%, 5 min) was 99%, the “% Death” value ([2]; 9%, 5 min) was 100% and the “% Death” value ([2]; 10%, 5 min) was 100%. For the same molecule, the “% Death” value ([2]; 10%, 10 min) was 100%, the “% Death” value ([2]; 12%, 5 min) was 96% and the “% Death” value ([2]; 15%, 5 min) was 94%. The “% Death” value ([2]; 15%, 10 min) was 100%, the “Acrosome Compromised” value ([3]; 5%) was 95% and the “Acrosome Not Compromised” value ([3]; 5%) was 5%. For the same molecule, the “Type I” value ([3]; 5%) was 5%, the “Type III” value ([3]; 5%) was 3% and the “Type II” value ([3]; 5%) was 28%. For the same molecule, the “Type IV” value ([3]; 5%) was 64%, the “Acrosome Compromised” value ([3]; 6%) was 98% and the “Acrosome Not Compromised” value ([3]; 6%) was 2%. The “Type I” value ([3]; 6%) was 2%, the “Type III” value ([3]; 6%) was 1% and the “Type II” value ([3]; 6%) was 3%. For the same molecule, the “Type IV” value ([3]; 6%) was 93%, the “Acrosome Compromised” value ([3]; 10%) was 67% and the “Acrosome Not Compromised” value ([3]; 10%) was 33%. The “Type I” value ([3]; 10%) was 33%, the “Type III” value ([3]; 10%) was 2% and the “Type II” value ([3]; 10%) was 26%. The “Type IV” value ([3]; 10%) was 38%, the “inhibition to growth of E. coli relative to non-fluorous homologs” value (Escherichia coli) was “greater inhibition” and the “inhibition of E. coli relative to F7-TEG” value (Escherichia coli; comparable doses) was “less inhibition”. The “inhibition of Candida relative to F7-TEG” value (Candida albicans) was “somewhat less inhibitory”.
With `O=S(=O)([O-])CCCOCC(F)(F)C(F)(F)C(F)(F)F.[Na+]` [F7-PS, sodium 3-(2,2,3,3,4,4,4-heptafluoro-butoxy)-propane-1-sulfonate] the “% Motility” value ([1]; 4%, 5 min) was less than 1%, the “% Motility” value ([1]; 5%, 5 min) was less than 1% and the “% Motility” value ([1]; 5%, 10 min) was 0%. For the same molecule, the “% Motility” value ([1]; 7%, 5 min) was 0%, the “% Death” value ([2]; 4%, 5 min) was 90% and the “% Death” value ([2]; 4%, 10 min) was 99%. The “% Death” value ([2]; 5%, 5 min) was 96%, the “% Death” value ([2]; 5%, 10 min) was 96% and the “% Death” value ([2]; 7%, 5 min) was 100%. The “Acrosome Compromised” value ([3]; 3%) was 36%, the “Acrosome Not Compromised” value ([3]; 3%) was 64% and the “Type I” value ([3]; 3%) was 64%. For the same molecule, the “Type III” value ([3]; 3%) was 0%, the “Type II” value ([3]; 3%) was 13% and the “Type IV” value ([3]; 3%) was 22%. The “Acrosome Compromised” value ([3]; 4%) was 100%, the “Acrosome Not Compromised” value ([3]; 4%) was 0% and the “Type I” value ([3]; 4%) was 0%. For the same molecule, the “Type III” value ([3]; 4%) was less than 1%, the “Type II” value ([3]; 4%) was 4% and the “Type IV” value ([3]; 4%) was 95%. For the same molecule, the “Acrosome Compromised” value ([3]; 7%) was 41%, the “Acrosome Not Compromised” value ([3]; 7%) was 59% and the “Type I” value ([3]; 7%) was 59%. For the same molecule, the “Type III” value ([3]; 7%) was 0%, the “Type II” value ([3]; 7%) was 40% and the “Type IV” value ([3]; 7%) was 1%. The “inhibition of E. coli” value (Escherichia coli; 250 mM, compared with F7-TEG/F5-TEG treatments) was “comparable inhibition”, the “inhibition of growth of Candida” value (Candida albicans; exposure in the order of 24 hours) was “significant inhibition of growth” and the “inhibition of growth of Candida” value (Candida albicans; exposure limited to 3 or 6 hours) was “allowed recovery of growth”.
`OCCOCCOCCOCC(F)(F)C(F)(F)C(F)(F)F` [F7-TEG, F7-triethylene glycol] was tested, and the “% Motility” value ([1]; 5%, 5 min) was 0%, the “% Motility” value ([1]; 6%, 5 min) was 0% and the “% Motility” value ([1]; 7%, 5 min) was 0%. For the same molecule, the “% Motility” value ([1]; 8%, 5 min) was 0%, the “% Motility” value ([1]; 9%, 5 min) was 0% and the “% Motility” value ([1]; 10%, 5 min) was 1%. The “% Motility” value ([1]; 12%, 5 min) was 0%, the “% Motility” value ([1]; 15%, 5 min) was 0% and the “% Motility” value ([1]; 15%, 10 min) was 0%. For the same molecule, the “% Death” value ([2]; 5%, 5 min) was 97%, the “% Death” value ([2]; 5%, 10 min) was 99% and the “% Death” value ([2]; 6%, 5 min) was 98%. The “% Death” value ([2]; 7%, 5 min) was 99%, the “% Death” value ([2]; 8%, 5 min) was 100% and the “% Death” value ([2]; 9%, 5 min) was 100%. For the same molecule, the “% Death” value ([2]; 10%, 5 min) was 95%, the “% Death” value ([2]; 12%, 5 min) was 99% and the “% Death” value ([2]; 15%, 5 min) was 98%. The “% Death” value ([2]; 15%, 10 min) was 100%, the “Acrosome Compromised” value ([3]; 5%) was 87% and the “Acrosome Not Compromised” value ([3]; 5%) was 13%. The “Type I” value ([3]; 5%) was 13%, the “Type III” value ([3]; 5%) was less than 1% and the “Type II” value ([3]; 5%) was 59%. For the same molecule, the “Type IV” value ([3]; 5%) was 28%, the “Acrosome Compromised” value ([3]; 6%) was 88% and the “Acrosome Not Compromised” value ([3]; 6%) was 13%. For the same molecule, the “Type I” value ([3]; 6%) was 13%, the “Type III” value ([3]; 6%) was 5% and the “Type II” value ([3]; 6%) was 25%. The “Type IV” value ([3]; 6%) was 58%, the “Acrosome Compromised” value ([3]; 10%) was 96% and the “Acrosome Not Compromised” value ([3]; 10%) was 4%. For the same molecule, the “Type I” value ([3]; 10%) was 4%, the “Type III” value ([3]; 10%) was 3% and the “Type II” value ([3]; 10%) was 34%. For the same molecule, the “Type IV” value ([3]; 10%) was 59%, the “inhibition to growth of E. coli relative to non-fluorous homologs” value (Escherichia coli) was “greater inhibition” and the “growth of E. coli” value (Escherichia coli; final concentrations of 1% or greater, 3 hours or longer) was “unable to grow”. The “inhibition of Candida” value (Candida albicans; 5%, exposure 3 hours or longer) was “substantial inhibition”.
nonoxynol-9 [N-9, reference compound] was tested, and the “% Motility” value ([1]; 0.001%, 5 min, whole semen) was 43%, the “% Motility” value ([1]; 0.005%, 5 min, whole semen) was 60% and the “% Motility” value ([1]; 0.01%, 5 min, whole semen) was less than 1%. The “% Motility” value ([1]; 0.1%, 5 min, whole semen) was 0%, the “% Death” value ([2]; 0.001%, 5 min, PI staining) was 38% and the “killing of sperm cells” value ([2]; 1.76 mM, 5 min) was “kill essentially all sperm cells”. For the same molecule, the “% Death” value ([2]; 0.005%, 5 min, PI staining) was 60%, the “% Death” value ([2]; 0.01%, 5 min, PI staining) was 67% and the “% Death” value ([2]; 0.1%, 5 min, PI staining) was 94%. The “morphological changes of HeLa cells” value (HeLa cells) was “significant morphological changes”.

Source: patent publication US20110237676A1, “SPERMICIDAL AND MICROBICIDAL COMPOSITIONS” (LEHIGH UNIVERSITY, priority 2007, published 2011)
